What all share (assay type): cell-based, human
Assay [1] concerns monocyte-derived dendritic cells. In words: Allogeneic MLR with monocyte-derived DCs. The protocol: FIG. 9 is a graph showing the effect of DDR1 antibody on the antigen presenting capacity of DCs.
The most important function of DCs is to present antigens to naïve T cells. […] Human T cells were purified from PBMCs of healthy donors by magnetic separation using CD3^+microbeads (Miltenyi Biotech Inc., Auburn, Calif.). T cells (1×10^5) were placed in 96-well plates with increasing numbers of DC (5×10^2−1×10^4 cells) in 200 μl culture medium. On day four, 1 μCi/well of [^3H]thymidine was added, and incorporation of radioactivity was measured after 15 hours of incubation. All tests were performed in triplicate.

For assay [2], the system named is NF-κB. The experiment in a line: Nuclear translocation of NF-κB by EMSA. The settings on record: DDR1b-overexpressing cells on collagen-coated plates. The protocol:
Nuclear translocation of NF-κB was examined by EMSA. Nuclear extracts were prepared by a method previously reported (Ueda et al., J. Biol. Chem. 272:31092, 1997), and aliquots were frozen at −80° C. For EMSA, end-labeled ^32P-oligonucleotide probes corresponding to the NF-KB binding site of the Ig κ-chain (5′-[…]-3′) (SEQ ID NO: 15) or MCP-1 (A2 site; 5′-[…]-3′) (SEQ ID NO: 16) gene were used. Each probe was incubated with 5 μg of nuclear extracts in 20 μl of binding cocktail (50 mM Tris-HCl, pH 7.4, 25 MM MgCl2, 0.5 mM DTT, 50% glycerol) at 4° C. for 15 minutes. The DNA-protein complexes were resolved on a 5% polyacrylanide gel. The dried gels were exposed to X-ray films.
A general note: In EMSA bound probe runs differently from free probe, usually more slowly.

The next assay has as its system THP-1 cells. The experiment in a line: Flow cytometry of HLA-DR, CD11c, CD14, CD40 on PMA-treated THP-1 cells. The protocol:
FIG. 5 is a graph showing the effects of collagen-activation of two DDR1 isoforms on the expression of CD11c, CD14, and CD40. Each cell line was plated at 5×10^6 cells/ml on either uncoated or collagen-coated plates and incubated at 37° C. for 24 hours in the presence of 10 nM PMA. Anti-1β integrin antibody (10 μg/ml) was used to block the effect of 1β integrin-collagen interaction. The percentage of CD11c, CD14, or CD40-positive cells is shown. Data are presented as the mean ±SD from three independent experiments.
Parental, mock, DDR1a-overexpressing, or DDR1b overexpressing THP-1 cells were plated at 5×10^6 cells/ml on either uncoated or collagen-coated plates and incubated at 37° C. for 24 or 48 hours in the presence of 10 nM PMA. One hundred thousand cells were suspended in 50 μl of cold PBS containing 0.1% NaN3, […] BSA and 200 μg/ml human IgG in a Falcon 2052 tube, and incubated for 10 minutes on ice. One μg of mouse monoclonal antibody against CD11c, CD14 CD40, or HLA-DR, or control mouse IgG were added to each tube and the cells were incubated for another 15 minutes on ice. The cells were washed with PBS, and then incubated with 1 μg of FITC-conjugated goat anti-mouse IgG for 15 minutes on ice. At the end of incubation, propidium iodide (PI) (100 μM) was added to each tube. The cells were washed by PBS, and subsequently analyzed by using a FACS scan (Becton Dickinson). Dead cells, determined by the incorporation of PI, were gated out. Results were processed by using the Cellquest software (Becton Dickinson).
The cells were then rinsed three times with RPMI 1640 containing 10% FCS, and incubated either with the p38 MAP kinase inhibitor SB203580, the MEK (MAP or ERK kinase) ½ inhibitor PD98059, or dimethylsulfoxide (DMSO) for 30 minutes, followed by an additional 12 hour incubation in the presence of 10 nM PMA plus collagen. The expression of HLA-DR was analyzed by flow cytometry.

The subject of assay [3] is NF-κB. The experiment in a line: NF-κB luciferase reporter assay in THP-1 cells. Conditions: DDR1b-overexpressing cells. Here is the method: For the results shown in FIG. 7A, mock-transduced or DDR1b-overexpressing THP-1 cells were transfected with 10 μg of the NF-κB-Luc plasmid and 5 μg of pSV-β-galactosidese plasmid DNA (Promega, Madison, Wis.) per 100-mm tissue culture plate using Effectene Transfection Reagent (Qiagen, Valencia, Calif.), according to the manufacture's protocol. After a 12-hour incubation, cells were rinsed with phosphate buffered saline (PBS) and then incubated with 10 nM PMA on collagen-coated plates in the presence of absence of SB203580, PD98059, CAPE or dimethlysulfoxide (DMSO) for another 12 hours. Cells were collected and lysed using the Reporter Lysis Buffer (Promega, Madison, Wis.), and luciferase activity and β-galactosidase activities were measured according to the protocol provided by the manufacturer. The resulting luciferase activity was corrected based on the β-galactosidase activity in the same cell extract. For the results shown in FIG. 7B, DDR1b-overexpressing THP-1 cells were transfected with 10 μg of the pGLM-ENH, or pGLM-MA1MA2 (Ueda et al., J. Bio. Chem. 272: 31092-9, 1997) and 5 μg of pSV-β-galactosidese plasmid DNA (Promega, Madison, Wis.) per 100-mm tissue culture plate using Effectene Transfection Reagent (Qiagen, Valencia, Calif.) according to the manufacture's protocol. […] Cells were collected and lysed using the Reporter Lysis Buffer (Promega, Madison, Wis.), and luciferase activity and β-galactosidase activities were measured according to the protocol provided by the manufacturer. […]
Mock-transduced or DDR1b-overexpressing THP-1 cells were transfected with 10 μg of the NF-κB-Luc plasmid, pGL-ENH, or pGL-MA1MA2 and 5 μg of pSV-β-galactosidase plasmid DNA (Promega, Madison, Wis.) per 100-mm tissue culture plate using Effectene Transfection Reagent (Qiagen, Valencia, Calif.) according to the manufacture's protocol. […] Luciferase activity and β-galactosidase activities were measured according to the protocol provided by the manufacturer. […]

The mark [4] stands for this setting: DDR1b-overexpressing cells, collagen-coated plates, PMA, 24 hours.

Take TNF-α: the “allogeneic MLR by induced mDCs” value in assay [1] (cell number-dependent) is on record as “markedly activated”.

For the compound collagen, the “amount of NF-κB/DNA complex” value in the assay on NF-κB [2] is listed as “significantly increased”. For the same compound, in the assay with THP-1 cells (DDR1b-overexpressing cells, collagen-activated, PMA-treated, 12 hours), the “cells expressing HLA-DR” value is given as “Approximately 10%”. In addition, the “cells expressing HLA-DR” value in the assay on THP-1 cells (DDR1b-overexpressing cells, collagen-coated plates, 10 nM PMA, 24 hour) is “approximately 25%”. Further, in the assay on THP-1 cells (DDR1b-overexpressing cells, collagen-coated plates, 10 nM PMA, 48 hour), the “cells expressing HLA-DR” value is “Approximately 70%”. In the assay on THP-1 cells (setting [4]), the “cells expressing CD11c” value is given as “approximately 53%”, the “cells expressing CD14” value was approximately 35% and the “cells expressing CD40” value is listed as “approximately 19%”. Besides, the luciferase activity entry in the assay with NF-κB [3] (PMA plus collagen, NF-κB-Luc plasmid) is reported as “markedly increased”.

For `C[S+]([O-])c1ccc(-c2nc(-c3ccncc3)c(-c3ccc(F)cc3)[nH]2)cc1` (stereo not shown) [SB203580], the “increased NF-κB/DNA binding” value in the assay with NF-κB [2] was “not affected”. In the assay on THP-1 cells (collagen-activated PMA-treated DDR1b-overexpressing cells, 24 hours), the “expression of HLA-DR” value is given as “dose-dependently inhibited”. Moreover, the “increase in luciferase activity induced by PMA plus collagen” value in the assay with NF-κB [3] (12 hours) is “dose-dependently inhibited”. For the same compound, the “capacity to activate allogeneic MLR of TNF-α-induced DCs and its up-regulation by DDR1 activation” value in assay [1] was “almost completely abrogated”.

These data come from patent publication US7855076B2, “Use of discoidin domain receptor 1 (DDR1) and agents that affect the DDR1/collagen pathway” (The United States of America as represented by the …, priority 2002, dated 2010).
